Test results from the NIST ThermoML archive (doi:10.1007/s10765-010-0766-0).
Values joined by “and” are separate entries in the source; they are usually repeats but may differ in a detail not shown here. Equal entries are not always repeated. ± gives the expanded uncertainty stated by the source.

Assay: wn = mass fraction of the nth substance listed
Settings: Liquid, Pycnometric method, w2 = 0.4981

FC(F)C(F)(F)F [pentafluoroethane] + FCF
mass density (277.15 K, 11982 kPa): 1205.5 ± 2 kg/m3
mass density (278.15 K, 12826 kPa): 1205.4 ± 2 kg/m3
mass density (279.15 K, 13669 kPa): 1205.2 ± 2 kg/m3
mass density (280.15 K, 14512 kPa): 1205.1 ± 2 kg/m3
mass density (281.15 K, 15355 kPa): 1204.9 ± 2 kg/m3
mass density (282.15 K, 16198 kPa): 1204.8 ± 2 kg/m3
mass density (283.15 K, 17040 kPa): 1204.6 ± 2 kg/m3
mass density (284.15 K, 17881 kPa): 1204.5 ± 2 kg/m3
mass density (285.15 K, 18722 kPa): 1204.3 ± 2 kg/m3
mass density (286.15 K, 19563 kPa): 1204.2 ± 1.9 kg/m3
mass density (287.15 K, 20403 kPa): 1204 ± 1.9 kg/m3
mass density (288.15 K, 21239 kPa): 1203.8 ± 1.9 kg/m3
mass density (289.15 K, 22077 kPa): 1203.7 ± 1.9 kg/m3
mass density (291.15 K, 23750 kPa): 1203.4 ± 1.9 kg/m3
mass density (292.15 K, 24585 kPa): 1203.2 ± 1.9 kg/m3
mass density (293.15 K, 25420 kPa): 1203 ± 1.9 kg/m3
mass density (294.15 K, 26254 kPa): 1202.9 ± 1.9 kg/m3
mass density (295.15 K, 27085 kPa): 1202.7 ± 1.9 kg/m3
mass density (296.15 K, 27917 kPa): 1202.5 ± 1.9 kg/m3
mass density (297.15 K, 8118 kPa): 1113.5 ± 1.8 kg/m3
mass density (297.15 K, 28747 kPa): 1202.3 ± 1.9 kg/m3
mass density (298.15 K, 29575 kPa): 1202.2 ± 1.9 kg/m3
mass density (299.15 K, 9422 kPa): 1113.3 ± 1.8 kg/m3
mass density (300.15 K, 10072 kPa): 1113.2 ± 1.8 kg/m3
mass density (300.15 K, 10089 kPa): 1113.1 ± 1.8 kg/m3
mass density (301.15 K, 10723 kPa): 1113.1 ± 1.8 kg/m3
mass density (301.15 K, 10737 kPa): 1113 ± 1.8 kg/m3
mass density (302.15 K, 11374 kPa): 1113 ± 1.8 kg/m3
mass density (302.15 K, 11385 kPa): 1112.9 ± 1.8 kg/m3
mass density (303.15 K, 12024 kPa): 1112.9 ± 1.8 kg/m3
mass density (303.15 K, 12032 kPa): 1112.8 ± 1.8 kg/m3
mass density (304.15 K, 12672 kPa): 1112.8 ± 1.8 kg/m3
mass density (304.15 K, 12680 kPa): 1112.7 ± 1.8 kg/m3
mass density (305.15 K, 13320 kPa): 1112.6 ± 1.8 kg/m3
mass density (305.15 K, 13327 kPa): 1112.5 ± 1.8 kg/m3
mass density (306.15 K, 13970 kPa): 1112.5 ± 1.8 kg/m3
mass density (306.15 K, 13973 kPa): 1112.4 ± 1.8 kg/m3
mass density (307.15 K, 14620 kPa): 1112.4 ± 1.8 kg/m3 and 1112.3 ± 1.8 kg/m3
mass density (308.15 K, 15268 kPa): 1112.3 ± 1.8 kg/m3 and 1112.2 ± 1.8 kg/m3
mass density (309.15 K, 15915 kPa): 1112.1 ± 1.8 kg/m3
mass density (309.15 K, 15917 kPa): 1112.1 ± 1.8 kg/m3
mass density (310.15 K, 16562 kPa): 1111.9 ± 1.8 kg/m3
mass density (310.15 K, 16564 kPa): 1112 ± 1.8 kg/m3
mass density (311.15 K, 17208 kPa): 1111.8 ± 1.8 kg/m3
mass density (311.15 K, 17212 kPa): 1111.9 ± 1.8 kg/m3
mass density (312.15 K, 17853 kPa): 1111.7 ± 1.8 kg/m3
mass density (312.15 K, 17859 kPa): 1111.7 ± 1.8 kg/m3
mass density (313.15 K, 18499 kPa): 1111.6 ± 1.8 kg/m3
mass density (313.15 K, 18506 kPa): 1111.6 ± 1.8 kg/m3
mass density (314.15 K, 19144 kPa): 1111.4 ± 1.8 kg/m3
mass density (314.15 K, 19153 kPa): 1111.5 ± 1.8 kg/m3
mass density (315.15 K, 19788 kPa): 1111.3 ± 1.8 kg/m3
mass density (315.15 K, 19798 kPa): 1111.3 ± 1.8 kg/m3
mass density (316.15 K, 20432 kPa): 1111.2 ± 1.8 kg/m3
mass density (316.15 K, 20443 kPa): 1111.2 ± 1.8 kg/m3
mass density (317.15 K, 21075 kPa): 1111 ± 1.8 kg/m3
mass density (317.15 K, 21088 kPa): 1111.1 ± 1.8 kg/m3
mass density (318.15 K, 21719 kPa): 1110.9 ± 1.8 kg/m3
mass density (318.15 K, 21733 kPa): 1110.9 ± 1.8 kg/m3
mass density (319.15 K, 22362 kPa): 1110.7 ± 1.8 kg/m3
mass density (319.15 K, 22377 kPa): 1110.8 ± 1.8 kg/m3
mass density (320.15 K, 23005 kPa): 1110.6 ± 1.8 kg/m3
mass density (320.15 K, 23021 kPa): 1110.7 ± 1.8 kg/m3
mass density (321.15 K, 23648 kPa): 1110.5 ± 1.8 kg/m3
mass density (321.15 K, 23665 kPa): 1110.5 ± 1.8 kg/m3
mass density (322.15 K, 24289 kPa): 1110.3 ± 1.8 kg/m3
mass density (322.15 K, 24307 kPa): 1110.4 ± 1.8 kg/m3
mass density (323.15 K, 24930 kPa): 1110.2 ± 1.8 kg/m3
mass density (323.15 K, 24949 kPa): 1110.3 ± 1.8 kg/m3
mass density (324.15 K, 25571 kPa): 1110 ± 1.8 kg/m3
mass density (324.15 K, 25590 kPa): 1110.1 ± 1.8 kg/m3
mass density (325.15 K, 26210 kPa): 1109.9 ± 1.8 kg/m3
mass density (325.15 K, 26231 kPa): 1110 ± 1.8 kg/m3
mass density (326.15 K, 26850 kPa): 1109.8 ± 1.8 kg/m3
mass density (326.15 K, 26871 kPa): 1109.8 ± 1.8 kg/m3
mass density (327.15 K, 27488 kPa): 1109.6 ± 1.8 kg/m3
mass density (327.15 K, 27511 kPa): 1109.7 ± 1.8 kg/m3
mass density (328.15 K, 28127 kPa): 1109.4 ± 1.8 kg/m3
mass density (328.15 K, 28150 kPa): 1109.5 ± 1.8 kg/m3
mass density (329.15 K, 5865 kPa): 921.2 ± 1.5 kg/m3
mass density (329.15 K, 5904 kPa): 921.4 ± 1.5 kg/m3
mass density (329.15 K, 28764 kPa): 1109.3 ± 1.8 kg/m3
mass density (329.15 K, 28790 kPa): 1109.4 ± 1.8 kg/m3
mass density (330.15 K, 6231 kPa): 921.1 ± 1.5 kg/m3
mass density (330.15 K, 6255 kPa): 921.2 ± 1.5 kg/m3
mass density (330.15 K, 6269 kPa): 921.3 ± 1.5 kg/m3
mass density (330.15 K, 29402 kPa): 1109.1 ± 1.8 kg/m3
mass density (330.15 K, 29426 kPa): 1109.2 ± 1.8 kg/m3
mass density (331.15 K, 6598 kPa): 921 ± 1.5 kg/m3
mass density (331.15 K, 6620 kPa): 921.1 ± 1.5 kg/m3
mass density (331.15 K, 6635 kPa): 921.2 ± 1.5 kg/m3
mass density (331.15 K, 30065 kPa): 1109.1 ± 1.8 kg/m3
mass density (332.15 K, 6965 kPa): 921 ± 3.4 kg/m3
mass density (332.15 K, 6987 kPa): 921 ± 1.6 kg/m3
